Results as given in US4021544A, “Complement inhibitors” (American Cyanamid Company, priority 1976, dated 1977).
Where “and” joins values, the source holds several entries; their conditions need not be identical. Equal entries are not always repeated. Structures can show the parent of a compound that is named as a salt.

Tests used:
[1] = test system: shunt pathway activated by cobra venom factor; experiment: Test, Code 036 (C-Shunt inhibitor); type: cell-based; conditions: Table I, lysis of fragile human erythrocytes in autologous serum, serial two-fold dilution assay, higher well number indicates higher activity
Source text: (§1) An active inhibitor protects C2 from C1 and C4; (ii) Test, Code 035 (C3- C9 inhibitor) - This test determines the ability of the late components of human complement (C3-C9) to lyse EAC 142 in the presence of appropriate dilutions of the test compound. An active inhibitor protects EAC 142 from lysis by human C3-C9; (iii) Test, Code 036 (C-Shunt inhibitor) - In this test human erythrocytes rendered fragile are lysed in autologous serum via the shunt pathway activated by cobra venom factor in the presence of appropriate dilutions of the test compound. Inhibition of the shunt pathway results in failure of lysis; (iv) Forssman Vasculitis Test - Here, the well known complement dependent lesion, Forssman vasculitis, is produced in guinea pigs by intradermal injection of rabbit anti-forssman antiserum. The lesion is measured in terms of diameter, edema and hemorrhage and the extent to which a combined index of these is inhibited by prior intraperitoneal injection of the test compound at 200 mg/kg in then reported, unless otherwise stated; (v) Forssman Shock Test -- Lethal shock is produced in guinea pigs by an i.v. injection of anti-Forssman antiserum and the harmonic mean death time of treated guinea pigs is compared with that of simultaneous controls; (vi) Complement Level Reduction Test -- In this test, the above dosed guinea pigs, or others, are bled for serum and the complement level is determined in undiluted serum by the capillary tube method of U.S. Pat. No. 3,876,376 and compared to undosed control guinea pigs; and (vii) Cap 50 Test -- Here, appropriate amounts of the test compound are added to a pool of guinea pig serum in vitro, after which the undiluted serum capillary tube assay referred to above is run. The concentration of compound inhibiting 50% is reported.

[2] = biological target: activated human C1 (Homo sapiens, UniProt P09871); experiment: Test, Code 026 (C1 inhibitor); type: biochemical; conditions: for 026 Wells: Table I, serial two-fold dilution assay, higher well number indicates higher activity; for LOGARITHMIC DIFFERENCE EXPRESSED AS WELLS / COMPLEMENT INHIBITING ACTIVITY (WELLS) CODE 026 / INTRINSIC THERAPEUTICAL INDEX: Table II; for LOGARITHMIC DIFFERENCE EXPRESSED AS WELLS: Code 026 wells minus AC wells (base 2); for COMPLEMENT INHIBITING ACTIVITY (WELLS) CODE 026: highest active serial dilution; for INTRINSIC THERAPEUTICAL INDEX: antilogarithm (base 2) of difference between Code 026 wells and AC wells
Source text: as §1

[3] = test system: Citrated sheep plasma; experiment: In vitro anti-coagulant activity (AC) test; conditions: for A.C. Wells: Table I, clot inhibition, recalcified citrated sheep plasma, serial two-fold dilutions; for ANTI-COAGULANT ACTIVITY (WELLS) AC: Table II, highest active serial dilution
Method: The sheep RBC'S, kept in suspension throughout the clotting incubation time, become enmeshed in the fibrin matrix if a clot forms. Upon centrifugation of the plate untrapped RBC's form buttons, the sizes of which correspond to the degree of clot inhibition; this providing a measure of anti-coagulant activity (AC).

[4] = test system: late components of human complement (C3-C9); experiment: Test, Code 035 (C3-C9 inhibitor); type: biochemical; conditions: Table I; lysis of EAC 142; serial two-fold dilution assay, higher well number indicates higher activity
Source text: as §1

## O=S(=O)(O)OC[C@H]1O[C@H](O[C@H]2[C@H](OS(=O)(=O)O)[C@@H](OS(=O)(=O)O)[C@@H](O[C@H]3[C@H](OS(=O)(=O)O)[C@@H](OS(=O)(=O)O)[C@@H](O[C@H]4[C@H](OS(=O)(=O)O)[C@@H](OS(=O)(=O)O)C(OS(=O)(=O)O)O[C@@H]4COS(=O)(=O)O)O[C@@H]3COS(=O)(=O)O)O[C@@H]2COS(=O)(=O)O)[C@H](OS(=O)(=O)O)[C@@H](OS(=O)(=O)O)[C@@H]1O[C@H]1O[C@H](COS(=O)(=O)O)[C@@H](O[C@H]2O[C@H](COS(=O)(=O)O)[C@@H](O[C@H]3O[C@H](COS(=O)(=O)O)[C@@H](OS(=O)(=O)O)[C@H](OS(=O)(=O)O)[C@H]3OS(=O)(=O)O)[C@H](OS(=O)(=O)O)[C@H]2OS(=O)(=O)O)[C@H](OS(=O)(=O)O)[C@H]1OS(=O)(=O)O (stereo partly drawn) [Maltoheptaose Poly(H-)sulfate Sodium Salt]
[1]; Sodium Salt
  036 Wells: 6 Wells and 5 Wells

## O=S(=O)(O)OC[C@H]1O[C@H](O[C@H]2[C@H](OS(=O)(=O)O)[C@@H](OS(=O)(=O)O)[C@@H](O[C@H]3[C@H](OS(=O)(=O)O)[C@@H](OS(=O)(=O)O)[C@@H](O[C@H]4[C@H](OS(=O)(=O)O)[C@@H](OS(=O)(=O)O)C(OS(=O)(=O)O)O[C@@H]4COS(=O)(=O)O)O[C@@H]3COS(=O)(=O)O)O[C@@H]2COS(=O)(=O)O)[C@H](OS(=O)(=O)O)[C@@H](OS(=O)(=O)O)[C@@H]1O[C@H]1O[C@H](COS(=O)(=O)O)[C@@H](O[C@H]2O[C@H](COS(=O)(=O)O)[C@@H](O[C@H]3O[C@H](COS(=O)(=O)O)[C@@H](OS(=O)(=O)O)[C@H](OS(=O)(=O)O)[C@H]3OS(=O)(=O)O)[C@H](OS(=O)(=O)O)[C@H]2OS(=O)(=O)O)[C@H](OS(=O)(=O)O)[C@H]1OS(=O)(=O)O (stereo partly drawn) [Maltoheptaose Poly(H-)sulfate Trimethylamine Salt]
[2]
  026 Wells: +9 Wells
  LOGARITHMIC DIFFERENCE EXPRESSED AS WELLS: +5 WELLS
  COMPLEMENT INHIBITING ACTIVITY (WELLS) CODE 026: +9 WELLS
[1]
  036 Wells: 5 Wells
[3]
  A.C. Wells: +4 Wells
  ANTI-COAGULANT ACTIVITY (WELLS) AC: +4 WELLS

## O=S(=O)(O)OC[C@H]1O[C@H](O[C@H]2[C@H](OS(=O)(=O)O)[C@@H](OS(=O)(=O)O)C(OS(=O)(=O)O)O[C@@H]2COS(=O)(=O)O)[C@H](OS(=O)(=O)O)[C@@H](OS(=O)(=O)O)[C@@H]1OS(=O)(=O)O (stereo partly drawn) [Maltose Poly(H-)Sulfate Trimethylamine Salt]
[2]
  LOGARITHMIC DIFFERENCE EXPRESSED AS WELLS: +10 WELLS
  INTRINSIC THERAPEUTICAL INDEX: 1024
  COMPLEMENT INHIBITING ACTIVITY (WELLS) CODE 026: +8 WELLS
[4]
  035 Wells: Neg.
[1]
  036 Wells: Neg.
[3]
  A.C. Wells: -2 Wells
  ANTI-COAGULANT ACTIVITY (WELLS) AC: -2 WELLS

## O=S(=O)(O)OC[C@H]1O[C@H](O[C@H]2[C@H](OS(=O)(=O)O)[C@@H](OS(=O)(=O)O)C(OS(=O)(=O)O)O[C@@H]2COS(=O)(=O)O)[C@H](OS(=O)(=O)O)[C@@H](OS(=O)(=O)O)[C@@H]1OS(=O)(=O)O (stereo partly drawn) [Maltose Poly(H--) sulfate sodium salt, Maltose Poly (H-)Sulfate Sodium Salt]
[2]; Sodium Salt
  COMPLEMENT INHIBITING ACTIVITY (WELLS) CODE 026: +12 WELLS
[3]; Sodium Salt
  A.C. Wells: +2 Wells
  ANTI-COAGULANT ACTIVITY (WELLS) AC: +2 WELLS

## Maltotriose Poly(H-)sulfate Sodium Salt
[2]
  026 Wells: +9 Wells
  LOGARITHMIC DIFFERENCE EXPRESSED AS WELLS: +10 WELLS
  INTRINSIC THERAPEUTICAL INDEX: 1024
  COMPLEMENT INHIBITING ACTIVITY (WELLS) CODE 026: +9 WELLS
[4]
  035 Wells: Neg.
[1]
  036 Wells: Neg.
[3]
  A.C. Wells: -1 Wells
  ANTI-COAGULANT ACTIVITY (WELLS) AC: -1 WELLS

## Maltotriose Poly(H-)sulfate Trimethylamine Salt
[2]
  026 Wells: +7 Wells
  LOGARITHMIC DIFFERENCE EXPRESSED AS WELLS: +8 WELLS
  INTRINSIC THERAPEUTICAL INDEX: 256
  COMPLEMENT INHIBITING ACTIVITY (WELLS) CODE 026: +7 WELLS
[4]
  035 Wells: Neg.
[1]
  036 Wells: Neg.
[3]
  A.C. Wells: -1 Wells
  ANTI-COAGULANT ACTIVITY (WELLS) AC: -1 WELLS
